Assay: xn = mol fraction of the nth substance listed
Settings: for electrical conductivity: frequency 0.001 MHz

CO/N=C(\C(=O)N[C@@H]1C(=O)N2C(C(=O)[O-])=C(CSc3nc(=O)c(=O)[n-]n3C)CS[C@H]12)c1csc(N)n1.[Na+].[Na+] + CCCCCC[n+]1ccc(C)cc1.[Br-] + O
viscosity [mPa·s], 100 kPa
Settings	x1 = 0.0003495, x2 = 0	x1 = 0.0008732, x2 = 0	x1 = 0.001391, x2 = 0	x1 = 0.002502, x2 = 0	x1 = 0.00312, x2 = 0	x1 = 0.003888, x2 = 0	x1 = 0.004767, x2 = 0	x1 = 0.005484, x2 = 0
288.15 K	1.196	1.273	1.365	1.604	1.745	1.964	2.205	2.45
293.15 K	1.053	1.12	1.2	1.399	1.527	1.701	1.918	2.122
298.15 K	0.935	0.994	1.062	1.231	1.348	1.495	1.674	1.858
303.15 K	0.829	0.885	0.945	1.1	1.195	1.323	1.48	1.638
308.15 K	0.744	0.794	0.849	0.982	1.07	1.184	1.322	1.455

CC[n+]1ccn(C)c1.F[B-](F)(F)F + CCCCCC[n+]1ccn(C)c1.F[B-](F)(F)F
101 kPa, x1 = 1
Settings	viscosity [mPa·s]
299.15 K	34.52
308.15 K	25.54

CCCCCCCCCCCCCC[P+](CCCCCC)(CCCCCC)CCCCCC.[c-]1nc[nH]n1 + CCCCCC[n+]1ccn(C)c1.O=S(=O)([N-]S(=O)(=O)C(F)(F)F)C(F)(F)F
viscosity [mPa·s], 100 kPa
Settings	278.15 K	283.15 K	288.15 K	293.15 K	298.15 K	303.15 K	308.15 K	313.15 K	318.15 K	323.15 K
x2 = 0.1	5162	3302	2162	1458	1013	720	524	389	296	229
x2 = 0.195	4777	3062	2000	1349	930	664	484	359	273	211
x2 = 0.282	4094	2612	1719	1162	810	579	422	314	239	185
x2 = 0.378	3093	1992	1317	900	633	456	337	253	194	152
x2 = 0.493	2209	1445	970	677	485	355	267	204	159	127
x2 = 0.6	1397	940	641	452	329	245	186	145	115	93
x2 = 0.693	910	619	431	308	227	171	132	104	83	67
x2 = 0.792	612	424	301	220	165	127	99	79	64	53
x2 = 0.893	325	235	174	132	103	81	65	54	–	–

CO + CCCC[N+]1(C)CCCC1.O=S(=O)([N-]S(=O)(=O)C(F)(F)F)C(F)(F)F
Settings	viscosity [mPa·s]
293.15 K, 101 kPa, x2 = 0	0.74

CCC(O)CO (stereo unspecified) + CCCC[N+](C)(C)C.O=S(=O)([N-]S(=O)(=O)C(F)(F)F)C(F)(F)F
Settings	viscosity [mPa·s]
328.15 K, 101 kPa, x1 = 1	10.3

O=C([O-])C1=NN(c2ccc(S(=O)(=O)[O-])cc2)C(=O)C1N=Nc1ccc(S(=O)(=O)[O-])cc1.[Na+].[Na+].[Na+] (stereo unspecified) + CCCC[N+](CCCC)(CCCC)Cc1ccccc1.[Cl-] + O
101.3 kPa
Settings	electrical conductivity, 298.15 K [S/m]	electrical conductivity, 308.15 K [S/m]	electrical conductivity, 318.15 K [S/m]	viscosity, 298.15 K [mPa·s]	viscosity, 308.15 K [mPa·s]	viscosity, 318.15 K [mPa·s]
x1 = 0.0001802, x2 = 1.802e-05	0.11	0.131	0.158	0.933	0.799	0.663
x1 = 0.0001803, x2 = 5.405e-05	0.119	0.142	0.182	0.951	0.818	0.68
x1 = 0.0001804, x2 = 9.008e-05	0.151	0.168	0.196	0.971	0.836	0.699
x1 = 0.0004504, x2 = 1.801e-05	0.176	0.226	0.28	0.956	0.818	0.68
x1 = 0.0004507, x2 = 5.403e-05	0.201	0.248	0.328	0.975	0.839	0.698
x1 = 0.000451, x2 = 9.005e-05	0.263	0.301	0.353	0.996	0.858	0.719
x1 = 0.0007205, x2 = 1.801e-05	0.245	0.299	0.384	0.975	0.836	0.695
x1 = 0.0007209, x2 = 5.402e-05	0.269	0.342	0.452	0.995	0.858	0.715
x1 = 0.0007213, x2 = 9.003e-05	0.369	0.419	0.478	1.019	0.878	0.738
x1 = 0.0009904, x2 = 1.8e-05	0.319	0.38	0.493	0.994	0.853	0.711
x1 = 0.000991, x2 = 5.4e-05	0.353	0.438	0.577	1.015	0.877	0.733
x1 = 0.0009916, x2 = 9e-05	0.469	0.524	0.603	1.039	0.897	0.756
x1 = 0.00126, x2 = 1.8e-05	0.398	0.476	0.609	1.011	0.869	0.725
x1 = 0.001261, x2 = 5.399e-05	0.435	0.546	0.716	1.034	0.895	0.749
x1 = 0.001262, x2 = 8.998e-05	0.582	0.654	0.763	1.06	0.917	0.774
x1 = 0.00153, x2 = 1.799e-05	0.472	0.571	0.735	1.028	0.884	0.738
x1 = 0.001531, x2 = 5.397e-05	0.511	0.651	0.852	1.052	0.913	0.764
x1 = 0.001532, x2 = 8.995e-05	0.702	0.78	0.902	1.081	0.938	0.792

CO + CCCC[n+]1ccc(C)cc1.F[B-](F)(F)F
Settings	viscosity [mPa·s]
298.15 K, 101 kPa, x1 = 1	0.538

CO/N=C(\C(=O)N[C@@H]1C(=O)N2C(C(=O)[O-])=C(CSc3nc(=O)c(=O)[n-]n3C)CS[C@H]12)c1csc(N)n1.[Na+].[Na+] + CCCC[n+]1ccc(C)cc1.[Br-] + O
viscosity [mPa·s], 100 kPa
Settings	x1 = 0.0003495, x2 = 0	x1 = 0.0008732, x2 = 0	x1 = 0.001391, x2 = 0	x1 = 0.002502, x2 = 0	x1 = 0.00312, x2 = 0	x1 = 0.003888, x2 = 0	x1 = 0.004767, x2 = 0	x1 = 0.005484, x2 = 0
288.15 K	1.196	1.273	1.365	1.604	1.745	1.964	2.205	2.45
293.15 K	1.053	1.12	1.2	1.399	1.527	1.701	1.918	2.122
298.15 K	0.935	0.994	1.062	1.231	1.348	1.495	1.674	1.858
303.15 K	0.829	0.885	0.945	1.1	1.195	1.323	1.48	1.638
308.15 K	0.744	0.794	0.849	0.982	1.07	1.184	1.322	1.455

Source: the CheMixHub ionic liquid set
